Where a SMILES comes first, the peptide text is derived from it. Bridges are numbered along the chain shown (N, C = ends). The star is where a group is joined. 5FAM = O=C1OC2(c3ccc(O)cc3Oc3cc(O)ccc32)c2ccc(C(=O)*)cc21
How the values were obtained:
[1] = system: EBC-1 human lung squamous cancer cells; test: Cellular uptake (internalization) of Cf-labelled peptides by flow cytometry; type: cell-based; details: 90 min; for internalization compared with octaarginine (in words) / cellular uptake compared with linear peptide Acyl-Met-(Arg)6-Met-(Gly)4-Lys(Cf) / efficacy (internalization) of tetra- versus hexaarginine bicyclic derivative: EBC-1 cells, 1, 5, 10 µM; for internalization relative to octaarginine (Cf-Arg8): Cf-labelled peptides at 1, 5, 10 µM, trypsin treatment, flow cytometry fluorescence intensity, mean ± SD
Experimental: The internalization study of fluorophore-labeled peptides was performed on 24-well plates with 10^5 EBC-1 human lung squamous cancer cells (CRL-5889TM) per well. After 24 h incubation at 37 °C, the cells were treated with a serum-free medium as a negative control and with peptides in different concentrations (1, 5, 10 μM). After the incubation, 100 μL trypsin (0.25%) was used for 5–10 min to remove the excess peptides from the membranes and to detach the cells from the plates. By adding 800 µL of HPMI buffer (glucose, NaHCO3, NaCl, HEPES, KCl, MgCl2, CaCl2, Na2HPO4 × 2 H2O) containing 10% fetal bovine serum (FBS), the trypsin activity was stopped, and the cells were transferred to tubes for measurement. The cells were centrifuged at 216× g at 4 °C, and the supernatant was disposed of. The resuspended cells (in 250 μL HPMI) were used to measure their fluorescence intensity by flow cytometer (BDLSR II, BD Bioscience, San Jose, CA, USA). Data were analyzed with FACSDiVa 5.0 software (BD Bioscience, San Jose, CA, USA).
The internalization of peptides was measured by flow cytometry on EBC-1 cells. The carboxyfluorescein-labeled peptides were studied at 1, 5, and 10 μM concentrations. The cells were treated for 90 min at 37 °C.

EBC-1 cells = test: Cellular uptake after pretreatment with endocytosis inhibitors, flow cytometry; type: cell-based, human; details: peptide 5 μM 90 min 37 °C; for effect of CPZ (clathrin-mediated endocytosis inhibitor) on cellular uptake: CPZ 30 μM pretreatment 30 min
Experimental: In order to study the effect of inhibitors, the peptide conjugates were administered at 5 μM when the cells were pretreated by the inhibitors for 30 min. The cells were then kept at 37 °C for 90 min. Macropinocytosis was inhibited using 5-(N-ethyl-N-isopropyl)amiloride (EIPA), clathrin-mediated endocytosis with chlorpromazine (CPZ), colchicine (Col) to assess the role of microtubules, and methyl-β-cyclodextrin (CyD) for the inhibition of caveolae/lipid-raft-mediated endocytosis.
The CPPs can use several pathways to enter the cell. The dependence of the cellular uptake was measured for each Dabcyl-containing cyclic BBMB peptide using different inhibitors (Figure 7). The 5-(N-ethyl-N-isopropyl)amiloride (EIPA) inhibits macropinocytosis, chlorpromazine (CPZ) inhibits clathrin-mediated endocytosis, and colchicine (COL) was used to inhibit microtubule formation. Finally, methyl-beta-cyclodextrin (CyD) was used to inhibit caveolae-mediated endocytosis.
Figure 7 Effect of endocytosis inhibitors on the cellular uptake of peptides. Before the treatment with the peptide conjugates (5 μM) for 90 min, the EBC-1 cells were pretreated with inhibitors EIPA (50 μM), CPZ (30 μM), CyD (5 mM), and COL (10 mM) for 30 min. Significant difference from the control was measured using Student’s t-test (* p < 0.05). Data represent the mean ± standard deviation (SD).

[2] = Stability measurement in 25% human plasma; type: in vitro ADME; details: 25% human plasma (sodium citrate), 37 °C, aliquots at 0, 1 and 24 h, RP-HPLC; preliminary experiment
Experimental: The analysis was carried out based on the details described in Yuchen Hu et al.. The linear (Dabcyl-Met-(Arg)6-Met-(Gly)4-Lys(Cf)) and cyclic (Dabcyl-Cys-(Arg)6-Cys-(Gly)4-Lys(Cf) para BBMB) peptides were incubated with 25% human plasma at 37 °C. An aliquot of the peptide; human plasma mixture was taken at time points 0, 1, and 24 h. The samples were analyzed by RP-HPLC.
The molecular weight of peptides and conjugates was determined with ESI-MS using Bruker Amazon SL (Germany). The samples were dissolved in water-acetonitrile solution (50:50) with 0.1% formic acid. The samples were directly injected with a syringe pump.
Parameters: capillary voltage: 4 kV, nebulizer gas: 10 psi, dry gas: 4 L/min, heated capillary temperature: 250 °C.
EBC-1 human lung squamous cancer cells (CRL-5889TM) were used for the in vitro analysis. These cells were a generous gift of Prof. […]
Analytical RP-HPLC was performed on Exformma (Exformma Technology (ASIA) Co., Ltd, Hong Kong, China) HPLC system. […] Linear gradient elution (0 min 0% B; 2 min 0% B; 22 min 90% B) was used with eluent A (0.1% TFA in water) and eluent B (0.1% TFA in acetonitrile-water (80:20, v/v)) at 1mL/min flowrate, the peaks were detected at λ= 220 nm for both analytical and preparative RP-HPLC. […]
Samples were taken in 0, 1 and 24 hour time periods and measured with analytical HPLC. […]

For “Dabcyl-Cys-(Arg)4-Cys-(Arg)4-Cys-Lys(Cf) TBMB (bicyclic or more) [Dabcyl bicyclic octaarginine peptide on TBMB scaffold]”, the “internalization compared with octaarginine (in words)” value ([1]; 37 °C, flow cytometry) was “better internalization” and the “internalization relative to octaarginine (Cf-Arg8)” value ([1]; EBC-1 cells, 37 °C) was 3 fold.

For “Dabcyl-Cys-(Gly)4-Cys-(Arg)6-Lys(Cf) orto BBMB (sidechain bridge or staple) [Dabcyl cyclic peptide, thioether bonds to orto BBMB, hexaarginine at C-terminus]”, the “effect of EIPA (macropinocytosis inhibitor) on cellular uptake” value (EBC-1 cells; EIPA 50 μM pretreatment 30 min, Student's t-test p < 0.05) was “did not have an effect”.

With “Dabcyl-(Arg)6-Cys-(Gly)4-Cys-Lys(Cf) para BBMB (sidechain bridge or staple) [Dabcyl cyclic peptide, para BBMB, hexaarginine at N-terminus]” the “effect of CPZ (clathrin-mediated endocytosis inhibitor) on cellular uptake” value (EBC-1 cells) was “inhibits”.

With `CC(=O)N[C@H]1CSSC[C@@H](C(=O)NCC(=O)NCC(=O)NCC(=O)NCC(=O)N[C@@H](CCCCNC(=O)c2ccc3c(c2)C(=O)OC32c3ccc(O)cc3Oc3cc(O)ccc32)C(N)=O)NC(=O)[C@H](CCCNC(=N)N)NC(=O)[C@H](CCCNC(=N)N)NC(=O)[C@H](CCCNC(=N)N)NC(=O)[C@H](CCCNC(=N)N)NC(=O)[C@H](CCCNC(=N)N)NC(=O)[C@H](CCCNC(=N)N)NC1=O` [Acyl-Cys((Arg)6-Cys)-(Gly)4-Lys(Cf)] (Ac-CRRRRRRCGGGGK(5FAM)-NH2; disulfide 1-8) the “efficiency of cellular uptake compared with octaarginine at 5 µM” value ([1]; EBC-1 cells, 5 µM, 37 °C, flow cytometry) was “the same”, the “efficiency of cellular uptake compared with octaarginine at 10 µM” value ([1]; EBC-1 cells, 10 µM, 37 °C, flow cytometry) was “almost half” and the “cellular uptake compared with linear peptide Acyl-Met-(Arg)6-Met-(Gly)4-Lys(Cf)” value ([1]; 37 °C, flow cytometry) was “better cellular uptake”. The “cellular uptake compared with linear peptide Acyl-Met-(Arg)6-Met-(Gly)4-Lys(Cf)” value ([1]; 37 °C, flow cytometry, listed as Acyl-Cys-(Arg)6-Cys-(Gly)4-Lys(Cf)) was “did increase the internalization”.

In the case of “Dabcyl-Cys-(Arg)6-Cys-(Gly)4-Lys(Cf) orto BBMB (sidechain bridge or staple) [Dabcyl cyclic peptide, orto BBMB, hexaarginine in the cycle]”, the “internalization relative to octaarginine (Cf-Arg8)” value ([1]; EBC-1 cells, 37 °C) was 5 fold and the “effect of CPZ (clathrin-mediated endocytosis inhibitor) on cellular uptake” value (EBC-1 cells) was “inhibits”.

For “Dabcyl-Cys-(Arg)6-Cys-(Gly)4-Lys(Cf) para BBMB (sidechain bridge or staple) [Dabcyl cyclic peptide, para BBMB, hexaarginine in the cycle]”, the “toxicity in the uptake experiment” value ([1]; EBC-1 cells, 10 µM, 37 °C) was “showed toxicity”, the “internalization relative to octaarginine (Cf-Arg8)” value ([1]; EBC-1 cells, 37 °C) was 5 fold and the “effect of CPZ (clathrin-mediated endocytosis inhibitor) on cellular uptake” value (EBC-1 cells) was “inhibits”. For the same compound, the “stability in 25% human plasma” value [2] was “stable”.

For “Dabcyl-Cys((Arg)6-Cys)-(Gly)4-Lys(Cf) (disulfide) [Dabcyl cyclic peptide with disulfide bond, Cf-labelled]”, the “internalization compared with octaarginine (in words)” value ([1]; 37 °C, flow cytometry) was “still better” and the “internalization relative to octaarginine (Cf-Arg8)” value ([1]; EBC-1 cells, 37 °C) was 1.5–2 fold.

With “Acyl-Cys-(Arg)2-Cys-(Arg)2-Cys-Lys(Cf) TBMB (bicyclic or more) [acylated bicyclic tetraarginine peptide on TBMB scaffold]” the “efficacy (internalization) of tetra- versus hexaarginine bicyclic derivative” value ([1]; flow cytometry) was “no difference”.

With “Dabcyl-(Arg)6-Cys-(Gly)4-Cys-Lys(Cf) orto BBMB (sidechain bridge or staple) [Dabcyl cyclic peptide, orto BBMB, hexaarginine at N-terminus]” the “effect of CPZ (clathrin-mediated endocytosis inhibitor) on cellular uptake” value (EBC-1 cells) was “inhibits”.

With “Acyl-Cys-(Arg)3-Cys-(Arg)3-Cys-Lys(Cf) TBMB (bicyclic or more) [acylated bicyclic hexaarginine peptide on TBMB scaffold]” the “efficacy (internalization) of tetra- versus hexaarginine bicyclic derivative” value ([1]; flow cytometry) was “no difference”.
